From US10125134B2 (Mirati Therapeutics, Inc., priority 2016, dated 2018)
Where two headings read alike, the source gives them in different places.

How the values were obtained:
[1] = test system: NCI-H358 cells (express KRas G12C), Phospho-ERK; experiment: Cellular inhibition of KRas G12C: Phospho-ERK in NCI-H358 cells; type: cell-based; conditions: pERK(Thr202/Tyr204) normalized with GAPDH, NCI-H358 cells, 3 hours, read-out: IC50
Procedure, shortened: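 IC50 derived by 4-parameter fit of GAPDH-normalized pERK(Thr202/Tyr204) signal, as percent of DMSO control. Signal came from in-cell immunodetection with infrared secondaries after 3 h compound exposure of KRas G12C NCI-H358 cells at 0.5% DMSO.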

[2] = target: KRas G12C (Homo sapiens, UniProt P01116, C118S/C51S/C80L/G12C); experiment: KRas G12C Modification Assay (LCMS detection of covalent adduct); type: binding; conditions: normalized percent of control; tested at 5 μM concentration for 3 hours
Procedure, shortened: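 Covalent modification was read by reverse-phase LC/MS of intact protein after compound exposure, each reaction stopped at its time point with 25 mM acetic acid. Unmodified-protein signal, taken as percent of total, was normalised to untreated protein and reported as POC.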

Structure (SMILES)	IC50 ([1]; Homo sapiens) [nM]	POC [2]	IC50 ([1]; Homo sapiens, NCI-H358, 3 h) [nM]	IC50 [1] [nM]
C=CC(=O)N1CCN(c2nc(OCCN(C)C)nc3c2CCN(c2cc(O)cc4ccccc24)C3)CC1C(=O)N(C)C (stereo not shown) [Example 51, 1-acryloyl-4-(2-(2-(dimethylamino)ethoxy)-7-(3-hydroxynaphthalen-1-yl)-5,6,7,8-tetrahydropyrido[3,4-d]pyrimidin-4-yl)-N,N-dimethylpiperazine-2-carboxamide]	> 1000	A (“A”≤25% POC)		
CC#CC(=O)N1CCN(c2nc(OC[C@@H]3CCCN3C)nc3c2CCN(c2cccc4cccc(C)c24)C3)C[C@@H]1CC#N [Example 455, 2-((S)-1-(but-2-ynoyl)-4-(7-(8-methylnaphthalen-1-yl)-2-(((S)-1-methylpyrrolidin-2-yl)methoxy)-5,6,7,8-tetrahydropyrido[3,4-d]pyrimidin-4-yl)piperazin-2-yl)acetonitrile]		C (“C”>50% POC)	0.1 to 1000	
C=CC(=O)N1CCN(c2nc(OC[C@H]3CCCN3C)nc3c2CCN(c2cccc4ccccc24)C3)CC1CC#N (stereo partly drawn) [Example 183, 2-[4-[2-[[(2R)-1-methylpyrrolidin-2-yl]methoxy]-7-(1-naphthyl)-6,8-dihydro-5H-pyrido[3,4-d]pyrimidin-4-yl]-1-prop-2-enoyl-piperazin-2-yl]acetonitrile]	0.1 to 1000	C (“C”>50% POC)		
C=CC(=O)N1CCN(c2nc(OC[C@H]3C[C@@H](O)CN3C)nc3c2CCN(c2cccc(F)c2C(F)(F)F)C3)CC1CC#N (stereo partly drawn) [Example 415, 2-(1-acryloyl-4-(7-(3-fluoro-2-(trifluoromethyl)phenyl)-2-(((2R,4R)-4-hydroxy-1-methylpyrrolidin-2-yl)methoxy)-5,6,7,8-tetrahydropyrido[3,4-d]pyrimidin-4-yl)piperazin-2-yl)acetonitrile]		C (“C”>50% POC)	0.1 to 1000	
C=CC(=O)N1CCN(c2nc(OCCCN3CCOCC3)nc3c2CCN(c2cc(O)cc4ccccc24)C3)C(CO)C1 (stereo not shown) [Example 168, 1-(3-(hydroxymethyl)-4-(7-(3-hydroxynaphthalen-1-yl)-2-(3-morpholinopropoxy)-5,6,7,8-tetrahydropyrido[3,4-d]pyrimidin-4-yl)piperazin-1-yl)prop-2-en-1-one]	> 1000	C (“C”>50% POC)		
C=CC(=O)N1CCN(c2nc(OC[C@@H]3CCCN3C)nc3c2CCN(c2cccc4cnccc24)C3)CC1CC#N (stereo partly drawn) [Example 292, 2-[4-[7-(5-isoquinolyl)-2-[[(2S)-1-methylpyrrolidin-2-yl]methoxy]-6,8-dihydro-5H-pyrido[3,4-d]pyrimidin-4-yl]-1-prop-2-enoyl-piperazin-2-yl]acetonitrile]		A (“A”≤25% POC)		> 1000
C=CC(=O)N1CCN(c2nc(OC[C@@H]3CCCN3C)nc3c2CCN(c2ccccc2Cl)C3)CC1CC#N (stereo partly drawn) [Example 229, 2-(1-acryloyl-4-(7-(2-chlorophenyl)-2-(((S)-1-methylpyrrolidin-2-yl)methoxy)-5,6,7,8-tetrahydropyrido[3,4-d]pyrimidin-4-yl)piperazin-2-yl)acetonitrile]		C (“C”>50% POC)	0.1 to 1000	
C=CC(=O)N1CCN(c2nc(OC[C@@H]3CCCN3C)nc3c2CCN(c2cccc(F)c2C(F)(F)F)C3)C[C@@H]1CC#N [Example 328, 2-((S)-1-acryloyl-4-(7-(3-fluoro-2-(trifluoromethyl)phenyl)-2-(((S)-1-methylpyrrolidin-2-yl)methoxy)-5,6,7,8-tetrahydropyrido[3,4-d]pyrimidin-4-yl)piperazin-2-yl)acetonitrile]		C (“C”>50% POC)	0.1 to 1000	
C=CC(=O)N1CCN(c2nc(OCCCN3CCOCC3)nc3c2CCN(c2c(C)c(O)cc4ccccc24)C3)CC1 [Example 173, 1-(4-(7-(3-hydroxy-2-methylnaphthalen-1-yl)-2-(3-morpholinopropoxy)-5,6,7,8-tetrahydropyrido[3,4-d]pyrimidin-4-yl)piperazin-1-yl)prop-2-en-1-one]	> 1000	C (“C”>50% POC)		
C/C=C/C(=O)N1CCN(c2nc(OC[C@@H]3CCCN3C)nc3c2CCN(c2cccc4cccc(C)c24)C3)C[C@@H]1CC#N [Example 372, 2-((S)-1-((E)-but-2-enoyl)-4-(7-(8-methylnaphthalen-1-yl)-2-(((S)-1-methylpyrrolidin-2-yl)methoxy)-5,6,7,8-tetrahydropyrido[3,4-d]pyrimidin-4-yl)piperazin-2-yl)acetonitrile]		C (“C”>50% POC)	0.1 to 1000	
C=CC(=O)N1CCN(c2ncnc3c2CCN(C(CO)c2ccccc2)C3)CC1 (stereo not shown) [Example 71, 1-(4-(7-(2-hydroxy-1-phenylethyl)-5,6,7,8-tetrahydropyrido[3,4-d]pyrimidin-4-yl)piperazin-1-yl)prop-2-en-1-one]	> 1000	A (“A”≤25% POC)		
C=CC(=O)N1CCN(c2nc(OC[C@@H]3CCCN3C)nc3c2CCN(c2cccc4ccccc24)C3)C(CC#N)C1 (stereo partly drawn) [Example 437, 2-(4-acryloyl-1-(2-(((S)-1-methylpyrrolidin-2-yl)methoxy)-7-(naphthalen-1-yl)-5,6,7,8-tetrahydropyrido[3,4-d]pyrimidin-4-yl)piperazin-2-yl)acetonitrile]		C (“C”>50% POC)	> 1000	
C=CC(=O)N1CCN(c2nc(O[C@H](C)CN(C)C)nc3c2CCN(c2cc(O)ccc2OC)C3)CC1 [Example 94, (R)-1-(4-(2-((1-(dimethylamino)propan-2-yl)oxy)-7-(5-hydroxy-2-methoxyphenyl)-5,6,7,8-tetrahydropyrido[3,4-d]pyrimidin-4-yl)piperazin-1-yl)prop-2-en-1-one]	> 1000	A (“A”≤25% POC)		
C=CC(=O)N1CCN(c2nc(OCCCN3CCOCC3)nc3c2CCN(c2cc(C(F)F)cc4ccccc24)C3)CC1 [Example 112, 1-(4-(7-(3-(difluoromethyl)naphthalen-1-yl)-2-(3-morpholinopropoxy)-5,6,7,8-tetrahydropyrido[3,4-d]pyrimidin-4-yl)piperazin-1-yl)prop-2-en-1-one]	> 1000	A (“A”≤25% POC)		
C=CC(=O)N1CCN(c2nc(OCCCN3CCCCC3)nc3c2CCN(c2cc(O)cc4ccccc24)C3)CC1 [Example 38, 1-(4-(7-(3-hydroxynaphthalen-1-yl)-2-(3-(piperidin-1-yl)propoxy)-5,6,7,8-tetrahydropyrido[3,4-d]pyrimidin-4-yl)piperazin-1-yl)prop-2-en-1-one]		C (“C”>50% POC)	0.1 to 1000	
C=CC(=O)N1CCN(c2nc(OC[C@@H]3CCCN3C)nc3c2CCN(c2c(C)c(C)cc4[nH]ncc24)C3)C[C@@H]1CC#N [Example 459, 2-[(2S)-4-[7-(5,6-dimethyl-1H-indazol-4-yl)-2-[[(25)-1-methylpyrrolidin-2-yl]methoxy]-6,8-dihydro-5H-pyrido[3,4-d]pyrimidin-4-yl]-1-prop-2-enoyl-piperazin-2-yl]acetonitrile]		C (“C”>50% POC)		0.1 to 1000
C=CC(=O)N1CCN(c2nc(OC[C@H]3COCCN3C)nc3c2CCN(c2cccc4ccccc24)C3)CC1CC#N (stereo partly drawn) [Example 444, 2-(1-Acryloyl-4-(2-(((R)-4-methylmorpholin-3-yl)methoxy)-7-(naphthalen-1-yl)-5,6,7,8-tetrahydropyrido[3,4-d]pyrimidin-4-yl)piperazin-2-yl)acetonitrile]		C (“C”>50% POC)		> 1000
